Assay [1] has as its system intracellular S. aureus NRS384 in THP-1 macrophages. The experiment in a line: Intracellular killing assay 2 (rifamycin analogs, S. aureus in THP-1 macrophages). It counts as cell-based, Staphylococcus aureus. As to conditions: Staphylococcus aureus, NRS384, 2 h; lowest concentration giving intracellular S. aureus below limit of detection (50 cfu/mL) in THP-1 macrophages; median of at least two experiments; read-out: S. aureus Intracellular killing MIC. Here is the method: THP-1 monocytic cell line was grown in media (RMPI+10% FBS+1% Penicillin/Streptomycin), then seeded at a density of 1e5 cells/well in a 96 well plate and differentiated into macrophages for three days prior to infection using 200 nM PMA. An overnight culture of S. aureus NRS384 was grown in RPMI, washed twice with PBS and resuspended at 1e7 cfu/mL in PBS. THP-1 were washed with warm media (RMPI without FBS) to remove the Penicillin/Streptomycin and then infected with the S. aureus suspension at a multiplicity of infection of 10:1 (S. aureus: macrophages). Plates were spun at 300×g for 5 minutes to synchronize adhesion of the bacteria, then incubated at 37° C. for 2 hours. Free-floating bacteria were removed by washing 2× with warm media and remaining extracellular S. aureus were killed by addition of media containing gentamicin (50 ug/mL). […] The compounds were added in media containing 50 µg/mL gentamicin to prevent extracellular growth of S. aureus. After 2 hours, plates were washed 2× with warm RPMI without FBS, and 100 ul of THP-1 lysis buffer (0.1% Triton in PBS) was added to each well. S. aureus survival was enumerated by colony forming units through serial dilution and plating onto TSA.
The intracellular MIC value indicated represents the median value of at least two independent experiments, unless indicated otherwise.

In assay [2] the test system is S. aureus NRS384. The experiment in a line: Broth minimum inhibitory concentration (MIC) assay 2. The class given is cell-based, Staphylococcus aureus. As to conditions: Staphylococcus aureus; S. aureus NRS384 in TSB, 24 hours at 37° C., OD600; median of at least two independent experiments; read-out: S. aureus Broth MIC. Here is the method: To test the potency of rifamycin analogs of the disclosure in vitro, a broth growth inhibition assay was developed. For the assay, S. aureus NRS384 was grown in Tryptic Soy Broth (TSB) overnight, then sub-cultured 1:50 in fresh TSB and grown for an additional two hours. The culture was then pelleted via centrifugation and washed twice in PBS. The culture was then diluted to 1×10^6 cfu/mL in TSB and 100 μL of the suspension was added per well to a 2 mL dilution plate in triplicate. […] The plates were sealed and incubated at 37° C. with shaking for 24 hours, then 150 μL of each sample was added to 96 well microtiter plates and the OD600 nm was read on a Spectramax i3 Minimax 300.
The broth MIC experiments were assessed in at least two independent experiments and the median value is captured below unless indicated otherwise.

Molecules are shown by their SMILES. Converted amounts (≈) assume the structure as drawn.

Consider `CO[C@H]1/C=C/O[C@@]2(C)Oc3c(C)c(O)c4c(=O)c(c5oc6cc(OC7CCN(C)CC7)ccc6nc-5c4c3C2=O)NC(=O)/C(C)=C\C=C\[C@H](C)[C@H](O)[C@@H](C)[C@@H](O)[C@@H](C)[C@H](OC(C)=O)[C@@H]1C` [Analog 17], for which the MIC turned out to be 0.2 µM (≈ 0.18 µg/mL) in assay [1] and 0.0156 µM (≈ 0.014 µg/mL) in assay [2].
The matching figures for `CO[C@H]1/C=C/O[C@@]2(C)Oc3c(C)c(O)c4c(=O)c(c5oc6cc(OCCN(C)C)cc(O)c6nc-5c4c3C2=O)NC(=O)/C(C)=C\C=C\[C@H](C)[C@H](O)[C@@H](C)[C@@H](O)[C@@H](C)[C@H](OC(C)=O)[C@@H]1C` [Analog 29]: 0.04 µM (≈ 0.0355 µg/mL) and 0.00391 µM (≈ 0.00347 µg/mL).
Taken in the same sequence, the figures for `CO[C@H]1/C=C/O[C@@]2(C)Oc3c(C)c(O)c4c(=O)c(c5oc6cc(OCC7CCN(C)C7)cc(O)c6nc-5c4c3C2=O)NC(=O)/C(C)=C\C=C\[C@H](C)[C@H](O)[C@@H](C)[C@@H](O)[C@@H](C)[C@H](OC(C)=O)[C@@H]1C` (stereo partly drawn) [Analog 29a] were 0.04 µM (≈ 0.0366 µg/mL) and 0.00391 µM (≈ 0.00357 µg/mL).
The matching figures for `CO[C@H]1/C=C/O[C@@]2(C)Oc3c(C)c(O)c4c(=O)c(c5oc6cc(OCC7CCN(C)CC7)cc(O)c6nc-5c4c3C2=O)NC(=O)/C(C)=C\C=C\[C@H](C)[C@H](O)[C@@H](C)[C@@H](O)[C@@H](C)[C@H](OC(C)=O)[C@@H]1C` [Analog 29b]: 0.04 µM (≈ 0.0371 µg/mL) and 0.00391 µM (≈ 0.00363 µg/mL).
With `CO[C@H]1/C=C/O[C@@]2(C)Oc3c(C)c(O)c4c(=O)c(c5oc6cc(OCCN7CCCC7)cc(O)c6nc-5c4c3C2=O)NC(=O)/C(C)=C\C=C\[C@H](C)[C@H](O)[C@@H](C)[C@@H](O)[C@@H](C)[C@H](OC(C)=O)[C@@H]1C` [Analog 29c], the MIC was 0.04 µM (≈ 0.0366 µg/mL) in assay [1] and 0.00391 µM (≈ 0.00357 µg/mL) in assay [2].
Taken in the same sequence, the figures for `CO[C@H]1/C=C/O[C@@]2(C)Oc3c(C)c(O)c4c(=O)c(c5oc6cc(OCCN7CC8CCC7C8)cc(O)c6nc-5c4c3C2=O)NC(=O)/C(C)=C\C=C\[C@H](C)[C@H](O)[C@@H](C)[C@@H](O)[C@@H](C)[C@H](OC(C)=O)[C@@H]1C` [Analog 29d] were 0.04 µM (≈ 0.0376 µg/mL) and 0.00391 µM (≈ 0.00368 µg/mL).
Turning to `CO[C@H]1/C=C/O[C@@]2(C)Oc3c(C)c(O)c4c(=O)c(c5oc6cc(OCCN7CCN(C)CC7)cc(O)c6nc-5c4c3C2=O)NC(=O)/C(C)=C\C=C\[C@H](C)[C@H](O)[C@@H](C)[C@@H](O)[C@@H](C)[C@H](OC(C)=O)[C@@H]1C` [Analog 29e], the MIC amounted to 0.04 µM (≈ 0.0377 µg/mL) in assay [1] and 0.0156 µM (≈ 0.0147 µg/mL) in assay [2].
Consider `CO[C@H]1/C=C/O[C@@]2(C)Oc3c(C)c(O)c4c(=O)c(c5oc6cc(OCCOCCN(C)C)cc(O)c6nc-5c4c3C2=O)NC(=O)/C(C)=C\C=C\[C@H](C)[C@H](O)[C@@H](C)[C@@H](O)[C@@H](C)[C@H](OC(C)=O)[C@@H]1C` [Analog 29f], for which the MIC in assay [1] is 0.2 µM (≈ 0.186 µg/mL); in assay [2] it was 0.0156 µM (≈ 0.0145 µg/mL).
Take `CO[C@H]1/C=C/O[C@@]2(C)Oc3c(C)c(O)c4c(=O)c(c5oc6cc(OCCN7CCOCC7)cc(O)c6nc-5c4c3C2=O)NC(=O)/C(C)=C\C=C\[C@H](C)[C@H](O)[C@@H](C)[C@@H](O)[C@@H](C)[C@H](OC(C)=O)[C@@H]1C` [Analog 29g]: the figures for the MIC in assay [1] and in assay [2] were 0.2 µM (≈ 0.186 µg/mL) and 0.00391 µM (≈ 0.00364 µg/mL), respectively.
As to `CO[C@H]1/C=C/O[C@@]2(C)Oc3c(C)c(O)c4c(=O)c(c5oc6cc(OCCN(C)c7ccccn7)cc(O)c6nc-5c4c3C2=O)NC(=O)/C(C)=C\C=C\[C@H](C)[C@H](O)[C@@H](C)[C@@H](O)[C@@H](C)[C@H](OC(C)=O)[C@@H]1C` [Analog 29h], the values for the MIC in assay [1] and in assay [2] were 1 µM (≈ 0.951 µg/mL) and 0.0625 µM (≈ 0.0594 µg/mL), respectively.
With `CO[C@H]1/C=C/O[C@@]2(C)Oc3c(C)c(O)c4c(=O)c(c5oc6cc(OCCNC(C)=O)cc(O)c6nc-5c4c3C2=O)NC(=O)/C(C)=C\C=C\[C@H](C)[C@H](O)[C@@H](C)[C@@H](O)[C@@H](C)[C@H](OC(C)=O)[C@@H]1C` [Analog 29i], the MIC in assay [1] stood at 0.2 µM (≈ 0.18 µg/mL); in assay [2] it was 0.00244 µM (≈ 0.0022 µg/mL).
Turning to `CO[C@H]1/C=C/O[C@@]2(C)Oc3c(C)c(O)c4c(=O)c(c5oc6cc(OCCN(C)C(C)=O)cc(O)c6nc-5c4c3C2=O)NC(=O)/C(C)=C\C=C\[C@H](C)[C@H](O)[C@@H](C)[C@@H](O)[C@@H](C)[C@H](OC(C)=O)[C@@H]1C` [Analog 29j], the MIC in assay [1] came to 0.04 µM (≈ 0.0366 µg/mL); in assay [2] it was 0.000977 µM (≈ 0.000895 µg/mL).
With `CO[C@H]1/C=C/O[C@@]2(C)Oc3c(C)c(O)c4c(=O)c(c5oc6cc(O)cc(O)c6nc-5c4c3C2=O)NC(=O)/C(C)=C\C=C\[C@H](C)[C@H](O)[C@@H](C)[C@@H](O)[C@@H](C)[C@H](OC(C)=O)[C@@H]1C` [Analog 29k], the MIC in assay [1] is more than 1 µM; in assay [2], 0.0625 µM (≈ 0.0511 µg/mL).
`CO[C@H]1/C=C/O[C@@]2(C)Oc3c(C)c(O)c4c(=O)c(c5oc6cc(OCCNCCN)ccc6nc-5c4c3C2=O)NC(=O)/C(C)=C\C=C\[C@H](C)[C@H](O)[C@@H](C)[C@@H](O)[C@@H](C)[C@H](OC(C)=O)[C@@H]1C` [Analog 35]: the MIC is more than 1 µM in assay [1] and 0.25 µM (≈ 0.222 µg/mL) in assay [2].
Turning to `CO[C@H]1/C=C/O[C@@]2(C)Oc3c(C)c(O)c4c(=O)c(c5oc6ccc(OCCN(C)C)cc6nc-5c4c3C2=O)NC(=O)/C(C)=C\C=C\[C@H](C)[C@H](O)[C@@H](C)[C@@H](O)[C@@H](C)[C@H](OC(C)=O)[C@@H]1C` [Analog 38], the MIC is 1 µM (≈ 0.872 µg/mL) in assay [1] and 0.0625 µM (≈ 0.0545 µg/mL) in assay [2].
The matching figures for `COc1cc(OCCN(C)C)cc2oc3c4c(=O)c5c(O)c(C)c6c(c5c-3nc12)C(=O)[C@@](C)(O/C=C/[C@H](OC)[C@@H](C)[C@@H](OC(C)=O)[C@H](C)[C@H](O)[C@H](C)[C@@H](O)[C@@H](C)/C=C/C=C(/C)C(=O)N4)O6` [Analog 43]: 0.04 µM (≈ 0.0361 µg/mL) and 0.00391 µM (≈ 0.00353 µg/mL).
Regarding `CO[C@H]1/C=C/O[C@@]2(C)Oc3c(C)c(O)c4c(=O)c(c5oc6cc(OCCN(C)C)cc(Cl)c6nc-5c4c3C2=O)NC(=O)/C(C)=C\C=C\[C@H](C)[C@H](O)[C@@H](C)[C@@H](O)[C@@H](C)[C@H](OC(C)=O)[C@@H]1C` [Analog 45], the values for the MIC in assay [1] and in assay [2] were 1 µM (≈ 0.906 µg/mL) and 0.00391 µM (≈ 0.00354 µg/mL), respectively.
The matching figures for `CO[C@H]1/C=C/O[C@@]2(C)Oc3c(C)c(O)c4c(=O)c(c5oc6cc(OCCN(C)C)c(Cl)cc6nc-5c4c3C2=O)NC(=O)/C(C)=C\C=C\[C@H](C)[C@H](O)[C@@H](C)[C@@H](O)[C@@H](C)[C@H](OC(C)=O)[C@@H]1C` [Analog 48]: 1 µM (≈ 0.906 µg/mL) and 0.0156 µM (≈ 0.0141 µg/mL).
Taken in the same sequence, the figures for `CCCCOc1cc(OCCN(C)C)cc2oc3c4c(=O)c5c(O)c(C)c6c(c5c-3nc12)C(=O)[C@@](C)(O/C=C/[C@H](OC)[C@@H](C)[C@@H](OC(C)=O)[C@H](C)[C@H](O)[C@H](C)[C@@H](O)[C@@H](C)/C=C/C=C(/C)C(=O)N4)O6` [Analog 50] were 1 µM (≈ 0.944 µg/mL) and 0.0156 µM (≈ 0.0147 µg/mL).
`CO[C@H]1/C=C/O[C@@]2(C)Oc3c(C)c(O)c4c(=O)c(c5oc6cc(OCCN(C)C)cc(OCc7ccccc7)c6nc-5c4c3C2=O)NC(=O)/C(C)=C\C=C\[C@H](C)[C@H](O)[C@@H](C)[C@@H](O)[C@@H](C)[C@H](OC(C)=O)[C@@H]1C` [Analog 52]: the figures for the MIC in assay [1] and in assay [2] were 1 µM (≈ 0.978 µg/mL) and 0.0625 µM (≈ 0.0611 µg/mL), respectively.
For `CO[C@H]1/C=C/O[C@@]2(C)Oc3c(C)c(O)c4c(=O)c(c5oc6cc(OCCN(C)C)cc(F)c6nc-5c4c3C2=O)NC(=O)/C(C)=C\C=C\[C@H](C)[C@H](O)[C@@H](C)[C@@H](O)[C@@H](C)[C@H](OC(C)=O)[C@@H]1C` [Analog 55], the MIC in assay [1] is 0.2 µM (≈ 0.178 µg/mL); in assay [2] it was 0.0156 µM (≈ 0.0139 µg/mL).

(Values after US11666658B2, “Rifamycin analogs and antibody-drug conjugates thereof” (Regeneron Pharmaceuticals, Inc., priority 2018, dated 2023).)
